Measured values as given in patent publication US20250122218A1, “MODULATORS OF CYSTIC FIBROSIS TRANSMEMBRANE CONDUCTANCE REGULATOR” (Vertex Pharmaceuticals Incorporated, priority 2022, published 2025).

Each compound was assayed against T1, CFTR in F508del/MF-HBE cells (Homo sapiens, UniProt P13569, DEL508-508) (assay: Ussing chamber assay of CFTR-mediated short-circuit currents (identification of potentiator compounds)). Conditions: potentiator incubated 18-24 hours at 37° C. in combination with 10 μM corrector, in the presence of 20% human serum, CFTR-mediated ISC.
T1 construct: human bronchial epithelial (HBE) cells derived from CF subjects heterozygous for F508del and a minimal function CFTR mutation; endogenous in cells; host or cells: primary human bronchial epithelial cells from CF subjects (F508del/MF-HBE)
Format: cell-based
Procedure: Ussing chamber experiments were performed using human bronchial epithelial (HBE) cells derived from CF subjects heterozygous for F508del and a minimal function CFTR mutation (F508del/MF-HBE) and cultured as previously described (Neuberger T, Burton B, Clark H, Van Goor F; Methods Mol. Biol. 2011:741:39-54). After four days the apical media was removed, and the cells were grown at an air liquid interface for >14 days prior to use.
To isolate the CFTR-mediated short-circuit (ISC) current, F508del/MF-HBE grown on Costar® Snapwell™ cell culture inserts were mounted in an Ussing chamber and the transepithelial ISC was measured under voltage-clamp recording conditions (Vhold=0 mV) at 37° C. The basolateral solution contained (in mM) 145 NaCl, 0.83 K2HPO4, 3.3 KH2PO4, 1.2 MgCl2, 1.2 CaCl2), 10 Glucose, 10 HEPES (pH adjusted to 7.4 with NaOH) and the apical solution contained (in mM) 145 NaGluconate, 1.2 MgCl2, 1.2 CaCl2), 10 glucose, 10 HEPES (pH adjusted to 7.4 with NaOH) and 30 μM amiloride to block the epithelial sodium channel. Forskolin (20 μM) was added to the apical surface to activate CFTR, followed by apical addition of a CFTR inhibitor cocktail consisting of BPO, GlyH-101 and CFTR inhibitor 172 (each at 20 μM final assay concentration) to specifically isolate CFTR currents. The CFTR-mediated ISC (μA/cm^2) for each condition was determined from the peak forskolin response to the steady-state current following inhibition.
The activity of the CFTR potentiator compounds on the CFTR-mediated ISC was determined in Ussing chamber studies as described above. The F508del/MF-HBE cell cultures were incubated with the potentiator compounds at a range of concentrations in combination with 10 μM (14S)-8-[3-(2-{dispiro[2.0.2.1]heptan-7-yl}ethoxy)-1H-pyrazol-1-yl]-12,12-dimethyl-2λ^6-thia-3,9,11,18,23-pentaazatetracyclo[17.3.1.111,14.05,10]tetracosa-1(22),5,7,9,19(23),20-hexaene-2,2,4-trione for 18-24 hours at 37° C. and in the presence of 20% human serum. The concentration of potentiator compounds and (14S)-8-[3-(2-{dispiro[2.0.2.1]heptan-7-yl}ethoxy)-1H-pyrazol-1-yl]-12,12-dimethyl-2λ^6-thia-3,9,11,18,23-pentaazatetracyclo[17.3.1.111,14.05,10]tetracosa-1(22),5,7,9,19(23),20-hexaene-2,2,4-trione used during the 18-24 hours incubations was kept constant throughout the Ussing chamber measurement of the CFTR-mediated ISC to ensure compounds were present throughout the entire experiment. The efficacy and potency of the putative F508del potentiators was compared to that of the known potentiator, ivacaftor (N-[2,4-bis(1,1-dimethylethyl)-5-hydroxyphenyl]-1,4-dihydro-4-oxoquinoline-3-carboxamide).

T1 sequence (P13569 with tags, fused parts or gaps DEL508-508): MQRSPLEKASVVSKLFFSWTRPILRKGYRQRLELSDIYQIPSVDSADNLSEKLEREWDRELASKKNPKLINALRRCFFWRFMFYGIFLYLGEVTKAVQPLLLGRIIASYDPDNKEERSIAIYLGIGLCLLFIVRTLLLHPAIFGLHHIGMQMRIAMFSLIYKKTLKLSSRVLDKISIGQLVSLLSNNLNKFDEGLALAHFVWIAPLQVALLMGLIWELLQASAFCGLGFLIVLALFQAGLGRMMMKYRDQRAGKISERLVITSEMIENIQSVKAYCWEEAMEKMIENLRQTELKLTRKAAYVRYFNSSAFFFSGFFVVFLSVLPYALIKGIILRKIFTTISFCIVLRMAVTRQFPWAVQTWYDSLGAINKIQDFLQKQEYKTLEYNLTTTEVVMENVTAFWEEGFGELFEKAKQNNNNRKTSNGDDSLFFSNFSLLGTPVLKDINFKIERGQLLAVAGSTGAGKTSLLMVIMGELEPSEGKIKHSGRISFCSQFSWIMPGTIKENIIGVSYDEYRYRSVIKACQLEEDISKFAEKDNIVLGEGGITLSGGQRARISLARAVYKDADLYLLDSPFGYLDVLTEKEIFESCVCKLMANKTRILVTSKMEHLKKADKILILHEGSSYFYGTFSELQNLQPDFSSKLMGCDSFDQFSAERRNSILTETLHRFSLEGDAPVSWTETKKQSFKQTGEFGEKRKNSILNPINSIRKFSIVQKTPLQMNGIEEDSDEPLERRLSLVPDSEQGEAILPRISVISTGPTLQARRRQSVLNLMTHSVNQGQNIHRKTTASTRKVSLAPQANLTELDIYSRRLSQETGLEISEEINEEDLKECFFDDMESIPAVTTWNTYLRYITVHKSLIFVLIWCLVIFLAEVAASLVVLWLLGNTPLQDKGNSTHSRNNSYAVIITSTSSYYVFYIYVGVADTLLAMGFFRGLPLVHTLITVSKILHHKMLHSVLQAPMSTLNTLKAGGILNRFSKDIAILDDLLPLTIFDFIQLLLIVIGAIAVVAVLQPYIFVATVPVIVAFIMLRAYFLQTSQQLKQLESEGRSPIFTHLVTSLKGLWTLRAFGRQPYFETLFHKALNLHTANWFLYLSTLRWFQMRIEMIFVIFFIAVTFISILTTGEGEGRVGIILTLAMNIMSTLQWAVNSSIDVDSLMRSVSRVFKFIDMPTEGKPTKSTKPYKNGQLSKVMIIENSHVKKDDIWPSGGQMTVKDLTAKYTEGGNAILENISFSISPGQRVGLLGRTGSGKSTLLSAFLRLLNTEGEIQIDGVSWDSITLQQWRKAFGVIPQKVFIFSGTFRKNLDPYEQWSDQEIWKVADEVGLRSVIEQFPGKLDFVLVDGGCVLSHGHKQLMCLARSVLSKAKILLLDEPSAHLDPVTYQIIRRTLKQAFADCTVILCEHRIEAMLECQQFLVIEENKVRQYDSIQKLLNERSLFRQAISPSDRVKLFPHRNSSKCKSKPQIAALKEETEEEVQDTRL

| SMILES | EC50 |
| --- | --- |
| N#CC1CCCCc2ccc(F)c(c2)C(O)(C(F)(F)F)C2=NN=C(O2)c2nc1c(C(F)(F)F)cc2N (single isomer, unassigned) [Compound 67, 20-amino-8-fluoro-6-hydroxy-6,18-bis(trifluoromethyl)-23-oxa-3,4,21-triazatetracyclo[15.3.1.12,5.17,11]tricosa-1(21),2,4,7,9,11(22),17,19-octaene-16-carbonitrile] | < 500 nM |
| N#CC1CCCCc2ccc(F)c(c2)C(O)(C(F)(F)F)C2=NN=C(O2)c2nc1c(C(F)(F)F)cc2N (single isomer, unassigned) [Compound 68, 20-amino-8-fluoro-6-hydroxy-6,18-bis(trifluoromethyl)-23-oxa-3,4,21-triazatetracyclo[15.3.1.12,5.17,11]tricosa-1(21),2,4,7,9,11(22),17,19-octaene-16-carbonitrile] | < 500 nM |
| Nc1cc(C(F)(F)F)c2nc1-c1nnc(o1)C(F)(C(F)(F)F)CCCCCCC2=O (single isomer, unassigned) [Compound 71, 17-amino-6-fluoro-6,15-bis(trifluoromethyl)-19-oxa-3,4,18-triazatricyclo[12.3.1.12,5]nonadeca-1(18),2,4,14,16-pentaen-13-one] | > 1000 nM |
| CN1CCCCCC(O)(C(F)(F)F)C2=NN=C(O2)c2nc(c(C(F)(F)F)cc2N)C1=O (single isomer, unassigned) [Compound 72, 17-Amino-6-hydroxy-12-methyl-6,15-bis(trifluoromethyl)-19-oxa-3,4,12,18-tetrazatricyclo[12.3.1.12,5]nonadeca-1(18),2,4,14,16-pentaen-13-one] | < 500 nM |
| CN1CCCCCC(O)(C(F)(F)F)C2=NN=C(O2)c2nc(c(C(F)(F)F)cc2N)C1=O (single isomer, unassigned) [Compound 73, 17-amino-6-hydroxy-12-methyl-6,15-bis(trifluoromethyl)-19-oxa-3,4,12,18-tetrazatricyclo[12.3.1.12,5]nonadeca-1(18),2,4,14,16-pentaen-13-one] | > 1000 nM |
| Nc1cc(C(F)(F)F)c2nc1-c1nnc(o1)C(O)(C(F)(F)F)CCCCCN(Cc1ccccc1)C2=O (single isomer, unassigned) [Compound 74, 17-Amino-12-benzyl-6-hydroxy-6,15-bis (trifluoromethyl)-19-oxa-3,4,12,18-tetrazatricyclo [12.3.1.12,5] nonadeca-1(18),2,4,14,1 6-pentaen-13-one] | < 500 nM |
| Nc1cc(C(F)(F)F)c2nc1-c1nnc(o1)C(O)(C(F)(F)F)CCCCCN(C1CCC1)C2=O (single isomer, unassigned) [Compound 78, 17-Amino-12-cyclobutyl-6-hydroxy-6,15-bis (trifluoromethyl)-19-oxa-3,4,12,18-tetrazatricyclo [12.3.1.12,5] nonadeca-1(18),2,4,14,1 6-pentaen-13-one] | < 500 nM |
| CC1(C)CCC2CCCC[C@](O)(C(F)(F)F)C3=NN=C(O3)c3nc(c(C(F)(F)F)cc3N)C(=O)N21 (single isomer, unassigned) [Compound 114] | < 500 nM |
| CC1(C)CCC2CCCC[C@](O)(C(F)(F)F)C3=NN=C(O3)c3nc(c(C(F)(F)F)cc3N)C(=O)N21 (single isomer, unassigned) [Compound 115] | < 500 nM |
| N#Cc1cc(N)c2nc1C(=O)N(C1CC(F)(F)C1)CCCCCC(O)(C(F)(F)F)C1=NN=C2O1 (single isomer, unassigned) [Compound 197, 17-amino-12-(3,3-difluorocyclobutyl)-6-hydroxy-13-oxo-6-(trifluoromethyl)-19-oxa-3,4,12,18-tetrazatricyclo[12.3.1.12,5]nonadeca-1(18),2,4,14,16-pentaene-15-carbonitrile] | > 1000 nM |
| Nc1cc(C(F)(F)F)c2nc1-c1nnc(o1)C(O)(C(F)(F)F)CCCCN(C1CC(F)(F)C1)C2=O (single isomer, unassigned) [Compound 198, 16-amino-11-(3,3-difluorocyclobutyl)-6-hydroxy-6,14-bis(trifluoromethyl)-18-oxa-3,4,11,17-tetrazatricyclo[11.3.1.12,5]octadeca-1(17),2,4,13,15-pentaen-12-one] | < 500 nM |
| Nc1cc(C(F)(F)F)c2nc1-c1nnc(o1)C(O)(C(F)(F)F)CCCCN(C1CC(F)(F)C1)C2=O (single isomer, unassigned) [Compound 199, 16-amino-11-(3,3-difluorocyclobutyl)-6-hydroxy-6,14-bis(trifluoromethyl)-18-oxa-3,4,11,17-tetrazatricyclo[11.3.1.12,5]octadeca-1(17),2,4,13,15-pentaen-12-one] | > 1000 nM |
| Nc1cc(C(F)(F)F)c2nc1-c1nnc(o1)C(O)(C(F)(F)F)c1cc(ccc1F)CCCN(C1CC(F)(F)C1)C2=O (single isomer, unassigned) [Compound 202, 20-amino-15-(3,3-difluorocyclobutyl)-8-fluoro-6-hydroxy-6,18-bis(trifluoromethyl)-23-oxa-3,4,15,21-tetraazatetracyclo [15.3.1.12,5.17,11] tricosa 1(21),2,4,7(22),8,10, 17,19-octaen-16-one] | < 500 nM |

Now from value to compound:

| EC50 | SMILES |
| --- | --- |
| < 500 nM | Nc1cc(C(F)(F)F)c2nc1-c1nnc(o1)C(O)(C(F)(F)F)c1cc(ccc1F)CCCN(C1CC(F)(F)C1)C2=O (single isomer, unassigned) [Compound 203, 20-amino-15-(3,3-difluorocyclobutyl)-8-fluoro-6-hydroxy-6,18-bis(trifluoromethyl)-23-oxa-3,4,15,21-tetraazatetracyclo [15.3.1.12,5.17,11] tricosa 1(21),2,4,7(22),8,10, 17,19-octaen-16-one] |
| < 500 nM | CC(C)N1CCCCCC(O)(C(F)(F)F)C2=NN=C(O2)c2nc(c(C(F)(F)F)cc2N)C1=O (single isomer, unassigned) [Compound 204, 17-amino-6-hydroxy-12-isopropyl-6,15-bis(trifluoromethyl)-19-oxa-3,4,12,18-tetrazatricyclo [12.3.1.12,5] nonadeca-1(18),2,4,14,16-pentaen-13-one] |
| > 1000 nM | CC(C)N1CCCCCC(O)(C(F)(F)F)C2=NN=C(O2)c2nc(c(C(F)(F)F)cc2N)C1=O (single isomer, unassigned) [Compound 205, 17-amino-6-hydroxy-12-isopropyl-6,15-bis(trifluoromethyl)-19-oxa-3,4,12,18-tetrazatricyclo [12.3.1.12,5] nonadeca-1(18),2,4,14,16-pentaen-13-one] |
| < 500 nM | Nc1cc(C(F)(F)F)c2nc1-c1nnc(o1)C(O)(C(F)(F)F)CCCCCN(CC(F)(F)F)C2=O (single isomer, unassigned) [Compound 206, 17-amino-6-hydroxy-12-(2,2,2-trifluoroethyl)-6,15-bis(trifluoromethyl)-19-oxa-3,4,12,18-tetrazatricyclo [12.3.1.12,5] nonadeca-1(18),2,4,14,16-pentaen-13-one] |
| > 1000 nM | Nc1cc(C(F)(F)F)c2nc1-c1nnc(o1)C(O)(C(F)(F)F)CCCCCN(CC(F)(F)F)C2=O (single isomer, unassigned) [Compound 207, 17-amino-6-hydroxy-12-(2,2,2-trifluoroethyl)-6,15-bis(trifluoromethyl)-19-oxa-3,4,12,18-tetrazatricyclo [12.3.1.12,5] nonadeca-1(18),2,4,14,16-pentaen-13-one] |
| < 500 nM | CC(C)(C)c1ccc(C2(N3CCCCCC(O)(C(F)(F)F)C4=NN=C(O4)c4nc(c(C(F)(F)F)cc4N)C3=O)CC2)cc1 (single isomer, unassigned) [Compound 227, 17-amino-12-[1-(4-tert-butylphenyl)cyclo-propyl]-6-hydroxy-6,15-bis(trifluoromethyl)-19-oxa-3,4,12,18-tetrazatricyclo [12.3.1.12,5] nonadeca-1(18),2,4,14,16-pentaen-13-one] |
| < 500 nM | CC(C)(C)c1ccc(C2(N3CCCCCC(O)(C(F)(F)F)C4=NN=C(O4)c4nc(c(C(F)(F)F)cc4N)C3=O)CC2)cc1 (single isomer, unassigned) [Compound 228, 17-amino-12-[1-(4-tert-butylphenyl)cyclo-propyl]-6-hydroxy-6,15-bis(trifluoromethyl)-19-oxa-3,4,12,18-tetrazatricyclo [12.3.1.12,5] nonadeca-1(18),2,4,14,16-pentaen-13-one] |
